compound,measurement,value
"COCCOc1ccc2c(C3C(=O)Nc4ccc(C#N)cc43)nccc2c1 (stereo not shown) [Example 3, 3-[6-(2-Methoxyethoxy)isoquinolin-1-yl]-2-oxo-2,3-dihydro-1H-indole-5-carbonitrile]",melting point,214 to 219 °C

# Source: US7205314B2, “Compounds for the treatment of dementia related diseases” (AstraZeneca AB, priority 2001, dated 2007)
